# Experimental data from patent US5789182A, “System for assaying binding to a heparin-binding growth factor receptor” (The Children's Medical Center Corporation, priority 1993, dated 1998).
# Assays:
# [1] = system: angiogenesis; details: associated with embryogenesis and inflammation; cited from earlier work
# [2] = system: endothelial cell migration; details: cited from earlier work
# [3] = system: mouse FGF receptor; assay: Chemical crosslinking of 125I-bFGF to mFR-transfected CHO cells (DSS); details: HS-deficient cells; unless heparin was included in the binding medium
# Protocol: (§1) Subconfluent cultures of about 2×10^5 cells in a 30 mm dish (Costar) were precooled to 4° C., washed twice with cold Dulbecco's modified Eagle's medium supplemented with 25 mM HEPES pH 7.5 and 1% bovine serum albumin (DMEM/BSA), and incubated for 2 hours at 4° C. with ^125 I-bFGF (50 μCi/ mmole) in DMEM/BSA at different concentrations and in the presence or absence of heparin, as determined by the experimental protocol. The binding medium was then discarded and the cells washed twice with ice cold PBS and twice with DMEM/BSA. To determine the amount of low-affinity-bound bFGF, the cells were incubated twice for 5 minutes with cold PBS, pH 7.5, containing 1.6M NaCl (low-affinity-bound bFGF could be totally removed using salt concentrations of 0.8M and higher--data not shown), and the radioactivity of the salt extraction solution assayed in a gamma counter. High-affinity-bound bFGF was determined by a 2M NaCl (pH 4.0) extraction (Moscatelli, J. Cell Biol. 107:753-759, 1988). Nonspecific binding was determined by including a 100-fold excess of unlabeled bFGF. After binding in the presence or absence of heparin, bFGF-receptor crosslinking with disuccinimidyl suberate (DSS) was performed as described (Yayon and Klagsbrun, Proc. Natl. Acad. Sci. USA 87:5346-5350, 1990). Briefly, cells were washed twice with PBS and then incubated with 0.15 mM DSS in PBS for 15 minutes at room temperature. […]
# [4] = system: serum-starved Balb/c fibroblasts; assay: Biological activity of iodinated bFGF; assay type: cell-based; details: ability to stimulate serum-starved Balb/c fibroblasts
# Description: Recombinant human bFGF was labeled with ^125 I (17 Ci/mg) (New England Nuclear, Boston, MA) using Iodo-beads (Pierce Chemical Co., Rockford, IL) according to the manufacturer's instructions. […] When subjected to SDS-PAGE, ^125 I-bFGF migrated as a single band in the same position as unlabeled bFGF.
# [5] = system: high-affinity FGF receptors; assay: High-affinity binding of 125I-bFGF to untransfected CHO cells; details: untransfected wild-type and mutant CHO cells, compared to NIH-3T3 cells
# Protocol: as §1
# [6] = Degradation of bFGF in binding medium (gel electrophoresis, biological activity assay); assay type: physicochemical; details: aliquots at end of each experiment, with or without heparin
# Description: The heparin-dependent high-affinityreceptor binding was similar to that reported for non-heparin-dependent binding of bFGF to cells which naturally express both HSPG and high-affinity receptors for bFGF (Neufeld et al., J. Biol. Chem. 261:5631-5637, 1985).
# [7] = system: FRAP (mouse bFGF receptor/alkaline phosphatase fusion); assay: Cell-free assay: 125I-bFGF binding to FRAP fusion protein, immunoprecipitated with AP-specific antibody
# Protocol: Conditioned medium from FRAP-A2 was assayed for its ability to bind ^125 I-bFGF by combining in the presence or in the absence of a standard amount of heparin, an aliquot of conditioned medium with a standard amount of ^125 I-bFGF and a standard amount of monoclonal antibody specific for placental alkaline phosphatase (Medix Biotech, Foster City, Calif.) coupled to CNBr-activated sepharose beads (Pharmacia, Piscataway, N.J.). The mixture was incubated for 90 min at 4° C. and centrifuged to pellet the beads, which were then washed two times with 0.5 ml PBS and re-pelleted before determining the amount of bound ^125 I in a gamma counter. […] In the experiment illustrated in FIG. 13, varying amounts of FRAP-A2-conditioned medium were combined with heparin and ^125 I-bFGF, while in FIG. 14 the variable was the concentration of heparin in the assay mix.
# [8] = system: cell surface heparin sulfate proteoglycans (low-affinity binding sites); assay: Low-affinity binding of 125I-bFGF to cells (1.6M NaCl extraction)
# Protocol: (§2) Subconfluent cultures of about 2×10^5 cells in a 30 mm dish (Costar) were precooled to 4° C., washed twice with cold Dulbecco's modified Eagle's medium supplemented with 25 mM HEPES pH 7.5 and 1% bovine serum albumin (DMEM/BSA), and incubated for 2 hours at 4° C. with ^125 I-bFGF (50 μCi/ mmole) in DMEM/BSA at different concentrations and in the presence or absence of heparin, as determined by the experimental protocol. The binding medium was then discarded and the cells washed twice with ice cold PBS and twice with DMEM/BSA. To determine the amount of low-affinity-bound bFGF, the cells were incubated twice for 5 minutes with cold PBS, pH 7.5, containing 1.6M NaCl (low-affinity-bound bFGF could be totally removed using salt concentrations of 0.8M and higher--data not shown), and the radioactivity of the salt extraction solution assayed in a gamma counter. High-affinity-bound bFGF was determined by a 2M NaCl (pH 4.0) extraction (Moscatelli, J. Cell Biol. 107:753-759, 1988). Nonspecific binding was determined by including a 100-fold excess of unlabeled bFGF. After binding in the presence or absence of heparin, bFGF-receptor crosslinking with disuccinimidyl suberate (DSS) was performed as described (Yayon and Klagsbrun, Proc. Natl. Acad. Sci. USA 87:5346-5350, 1990). Briefly, cells were washed twice with PBS and then incubated with 0.15 mM DSS in PBS for 15 minutes at room temperature. The cells were then washed with a solution of 50 mM Tris, pH 7.4, and 100 mM glycine; and scraped and lysed in a small volume of lysis buffer containing 150 mM NaCl, 20 mM Tris pH 8.0, 1mM MgCl2, 0.1 mM ZnCl2, 0.5% NP-40 (Sigma), 1 μg aprotinin (Sigma), 1 μg/ml leupeptin (Sigma), and 2 mM PMSF (phenylmethylsulfonyl fluoride; Sigma). The cell lysate, cleared by spinning down nuclei and cell debris, was boiled and then electrophoresed under reducing conditions on a 7% SDS polyacrylamide gel. After drying the gel, an autoradiogram was prepared using Kodak X-Omat AR film (Eastman Kodak Co., Rochester, N.Y.).
# [9] = system: mouse FGF receptor (mFR); assay: High-affinity receptor binding of 125I-bFGF to CHO cells transfected with mFR; details: for high-affinity binding of bFGF: no heparin
# Description: The following cell lines were used: Balb/c fibroblasts; NIH 3T3 cells; CHO K1 cells (parental wild-type CHO cells, available as ATCC Accession No. CCL 61); clones 803 and 677, each of which is a clone of glucuronosyltransferase-deficient CHO K1 cells which lack cell-surface HSPG (in addition, 677 cells overexpress the closely related GAG, chondroitin sulfate); and clone 606, HS-N-sulfotransferase-deficient CHO K1-derived cells which express normal levels of (but undersulfated) cell surface HSPG. The mutant clones 803, 677, and 606 were obtained from Dr. Jeffrey D. Esko. Wild-type and mutant CHO cells were routinely grown in Hams F12 medium supplemented with 10% bovine fetal calf serum and L-glutamine (Sigma). For transfection of the murine FGF receptor, approximately 4×10^7 cells were trypsinized, washed in ice cold PBS, and incubated with 50 μg Mo/mFR/SV and 8 μg of CMV B-gal (source; used as a control for transfection efficiency) for 10 min at 4° C. Electroporation was done in a Bio-Rad Gene Pulser at 960 uF and 300V. Cells were then plated in 3 cm, 6-well plates, medium was replaced after 24 hours, and b-gal and binding assays were performed 36 to 48 hours after electroporation. Routinely, 30 to 40% of the cells stained positive for b-gal.
# as §2
substance,measurement,setting,value
Protamine,effect on angiogenesis,[1],inhibits angiogenesis
same,effect on heparin-stimulated endothelial cell migration,[2],inhibits the ability of heparin to stimulate endothelial cell migration
"bFGF: recombinant human basic fibroblast growth factor, gift from Takeda Inc.",crosslinking of bFGF to high-affinity receptors,[3],could not be crosslinked
same,biological activity after iodination,[4],Full biological activity
same,high-affinity binding of bFGF,[5],very little high-affinity binding
same,degradation of bFGF in binding medium,[6],no signs of degradation
same,bound 125I with increasing concentrations of unlabelled FGF,[7]; competition assay (FIG. 12),decrease
same,binding of labelled bFGF to fusion protein,[7]; presence vs absence of heparin or a heparin-like molecule,in the presence but not in the absence
same,reduction of low-affinity binding of bFGF compared to wild-type CHO cells,[8]; CHO clone 606 (undersulfated HSPG),more than 50%
same,low-affinity binding of bFGF,"[8]; clone 677 cells (undetectable HSPG, overexpress chondroitin sulfate)",Absence of low-affinity bFGF binding
same,low-affinity binding of bFGF,[8]; clone 803 cells (5%-10% of wild-type HSPG),did not bind significant amounts
same,low-affinity binding of bFGF,[8]; wild-type CHO K1 cells,comparable to that found for NIH-3T3 cells
same,character of bFGF-receptor binding,"[9]; HS-deficient cells, 40 ng/ml heparin","specific, saturable, single class of high-affinity binding sites"
same,competition of heparin-dependent high-affinity receptor binding of 125I-bFGF,[9]; excess of unlabeled bFGF,specifically competed out
same,high-affinity binding of bFGF,[9]; mFR-transfected HS-deficient mutants,none of the similarly transfected HS-deficient mutants showed significant high-affinity binding
same,high-affinity binding of bFGF,[9]; wild-type CHO K1 cells transfected with Mo/mFR/SV,high levels of high-affinity binding
^125 I-bFGF: recombinant human bFGF labeled with 125I using Iodo-beads [reference compound],125I-bFGF bound relative to untransfected cells,[9]; wild-type CHO cells transiently transfected with mFR,8-10 fold
